Measured values from publication PMC5672024, “Selective Glucocorticoid Receptor Properties of GSK866 Analogs with Cysteine Reactive Warheads” (Frontiers in Immunology, 2017).

Columns and labels:
[1] = tested on: GR transactivation, p(GRE)2-50-luc reporter in HaCat cells; assay: p(GRE)2-50-luc reporter gene assay (GR transactivation); assay type: cell-based; conditions: 6 h; for GR transactivation in GRE-luc reporter: concentration range 10^−6–10^−10 M
Method: (§1) In order to compare transactivation and transrepression potencies of the different synthesized GSK866 analogs, we performed GRE- and NFκB-luciferase-dependent reporter gene studies in stable transfected cell lines, as previously described ([3], [8]). HaCat cells expressing p(GRE)2 50-Luc and L929sA cells expressing p(GRE)250-Luc or p(NFκB)350-Luc were cultured in DMEM medium with 1% L-glutamine, supplemented with 10% feral bovine serum (FBS), 100 µg/ml streptomycin, and 100 IU/mL penicillin in a humidified 5% CO2 atmosphere. Cells were passaged every 2 days at a dilution of 1:6. Reporter gene cells were plated at a density of 0.5 × 10^5 cells/well in 24 well plates and grown overnight. p(GRE)250-Luc-dependent reporter gene cells were treated with solvent (DMSO) or compound (100 fM, 1 nM, 10 nM, 100 nM, and 1 µM) for 6 h, whereas in case of p(NFκB)350-Luc, TNF (2,500 IU/mL) was added 2 h following compound treatment. After incubation with the compounds, medium was removed and cells were washed twice with PBS followed by adding 100 µl of 1× lysis buffer (0.2 M K2HPO4, 0.2 M KH2PO4, Triton X-100, pH 7.6). 25 µl of lysate was assayed for luciferase activity by adding 50 µl of luciferase assay substrate (1 mM luciferin or luciferin salt, 3 mM ATP, and 15 mM MgSO4 in 30 mM HEPES buffer, pH 7.8) followed by 10 s mixing and measuring 1 s bioluminescence using an Envision multilabel reader (Perkin Elmer).
(§2) Figure 3 Selective glucocorticoid receptor agonist GSK866 analogs UAMC-1217, UAMC-1218 but not UAMC-1158 and UAMC-1159 elicit selective glucocorticoid receptor-transactivation and NFκB-transrepression properties. Glucocorticoid response element (GRE)- and NFκB-luciferase-dependent reporter gene assays were performed in L929sA and HaCat reporter cells which were stably transfected with, respectively, p(NFκB)3-50luc or p(GRE)2-50-luc constructs. For p(GRE)2-50-luc reporter assays, cells were solvent-treated or induced with different concentrations of Dex (A), Dex-mesylate (Dex-Mes) (A), SEGRA GSK866 (C) or analogs UAMC-1158 (D), UAMC-1159 (E), UAMC-1217 (F), and UAMC-1218 (G) as indicated for a total exposure time of 6 h, whereas cells were cotreated for TNF (2,500 IU/ml) in the last 4 h for p(NFkB)3-50luc reporter assays (B–G). Corresponding lysates were assayed for luciferase activities and normalized for protein content as described in the Section “Materials and Methods.” Promoter activities are expressed as relative induction factor (± standard deviation) i.e., the ratio of expression levels recorded either at induced and non-induced conditions, with the latter taken to be 1.

[2] = tested on: TNF-induced NFκB reporter gene activity in L929sA cells; assay: p(NFκB)3-50luc reporter gene assay with TNF (NFκB transrepression); assay type: cell-based; conditions: TNF 2,500 IU/ml; for NFκB transrepression in NFκB-luc reporter: dose range
Method: as §1, §2

[3] = tested on: GR nuclear translocation in A549 cells; assay: Immunofluorescence of nuclear GR translocation in A549 cells; assay type: cell-based, human; conditions: serum starved A549 cells, 1 µM, 30 min
Method: To detect endogenous GR in A549 cells, cells were grown in serum free media for 24 h followed by treatment with 1 µM of specific GR ligands. After 30 min of treatment, cells on the cover glass were fixed in 4% formaldehyde in phosphate-buffered saline (PBS), permeabilized with 0.3% Triton X-100–PBS, and then blocked in 5% milk, 10% FCS, 0.3% bovine serum albumin, and 0.3% Triton X-100 in PBS for 30 min at room temperature. Primary antibodies against anti GR-antibody (SantaCruz Biotechnology) were used at a dilution of 1:200. Nuclei were stained by DAPI and samples were analyzed using a confocal Leica LSM410 microscope. To quantify nuclear translocation of GR in a standardized manner, multichannel fluorescence images were analyzed using a script for FIJI image analysis freeware (http://fiji.sc) that is essentially based on a pipeline described before (CellBlocks.ijm) ([39]), and is available upon request. In brief, the analysis first segments nuclei in the Hoechst/DAPI channel and then uses the nuclear mask to define perinuclear cytoplasmic regions of interest (ROIs). Nuclei are detected after local contrast enhancement and Gaussian smoothing to, respectively, cover for spatial illumination heterogeneity and noise. After automatic thresholding (Isodata algorithm), touching nuclei are separated using a conditional watershed algorithm ([40]). Next, cytoplasmic ROIs are determined as concentric bands around the nuclei by Voronoi-restrained region growing ([41]). Finally, the average intensity of the GR channel is measured in both the nuclear and cytoplasmic ROIs and the nuclear-to cytoplasm signal intensity ratio (N/C Ratio) is calculated per cell (Figure S1 in Supplementary Material) ([42]).
Figure 6 Selective glucocorticoid receptor agonist GSK866 analogs UAMC-1217, UAMC-1218, but not UAMC-1158 and UAMC-1159 trigger nuclear glucocorticoid receptor (GR) translocation. (A) Serum starved A549 cells were left solvent treated or treated for 30 min with 1 µM Dex, Dex-mesylate (Dex-Mes), GSK866, UAMC-1158, UAMC-1159, UAMC-1217, or UAMC-1218. GR translocation was evaluated by immunofluorescence whereas nuclei were stained by DAPI dye. Magnification is at 100×. White scalebars represent […]. (B) Automated image quantification of GR translocation of three replicate immunofluorescence images of the different experimental setups.

[4] = tested on: GR; design: method as in PMID 27612544; conditions: ref [14], cited from earlier work; for % inhibition of GR ligand binding: 1.5 nM [3H]-dexamethasone, 1 µM ligand; for IC50 / Ki: displacement of radiolabeled Dex; for IC50: read-out: IC50 (GR radioligand binding); for Ki: read-out: Ki (GR radioligand binding); for displacement of radiolabeled Dex: cell-based ligand-binding competition assay
[5] = tested on: GR Ser211 phosphorylation; assay: Western blot of GR Ser211 phosphorylation; assay type: cell-based; conditions: 1 µM, 6 h (UAMC-1158: Figure S2, 4 or 24 h)
Method: Whole cell extracts contain multiple protease inhibitors (Complete Mini®, Roche) and Halt phosphatase inhibitor cocktail (Thermoscientific). Soluble protein extracts were obtained after three times freeze and thaw cycles and centrifugation at […] for 15 min at 4°C. Samples were separated by sodium dodecyl sulfate-polyacrylamidegel electrophoresis (SDS-PAGE) and transferred onto nitrocellulose membranes (Hybond C, Amersham) following standard protocols. After blocking, membranes were incubated overnight at 4°C with the primary antibodies: anti-GR (sc-8992, SantaCruz Biotechnology), anti-phospho-GR Ser211 (4161, Cell Signalling) and anti-Actin (A3853, Sigma-Aldrich) followed by dye-conjugated secondary antibodies (LI-COR® Biosciences). Bound complexes were detected with the Odyssey® infrared imaging system (LI-COR®) and quantified by Image J software.
Figure 5 Selective glucocorticoid receptor agonist GSK866 and its analogs UAMC-1217, UAMC-1218 trigger glucocorticoid receptor (GR) Ser211 phosphorylation. (A) Western detection of expression levels of Actin, GR, and GR Ser S211 phosphorylation in HaCat cells following 6 h treatment with 1 µM Dex, UAMC-1217, UAMC-1218, or GSK866. (B) Bar plot representation of Western blot intensities of Actin, GR, and GR Ser S211 phosphorylation observed in panel A, as quantified by Image J. (C) Western detection of expression levels of Actin, GR expression, and Ser S211 phosphorylation in HaCat cells following 6 h treatment with, respectively, 10, 100, or 1,000 nM Dex or UAMC-1217. (D) Bar plot representation of Western blot intensities of Actin, GR, and GR Ser S211 phosphorylation observed in panel (C), as quantified by free Image J software.

[6] = tested on: GR; assay: Cell-based GR ligand-binding competition assay with [3H]-dexamethasone; conditions: from IC50 values of ligand displacement assays; ref [14]
[7] = tested on: recombinant GR-LBD (hGR); assay: Mass spectrometry of tryptic peptides of recombinant GR-LBD after ligand incubation (covalent binding); design: species or system human; conditions: 2 h at 37°C, trypsin digestion, LC-MS/MS
Method: Recombinant His6-MBP-mCaspase3 site-LBD-hGR was expressed in the Escherichia coli strain BL21codon + pICA2 that was transformed with the corresponding pLHM36LBD-hGR plasmid and in which expression was induced by Isopropyl β-D-1-thiogalactopyranoside (IPTG) under control of a pL-promotor. The transformed bacteria were grown in Luria Bertani medium supplemented with ampicillin (100 µg/ml) and kanamycin (50 µg/ml) overnight at 28°C before 1/100 inoculation in 12 × 0.5 l provided with Luria Bertani medium supplemented with ampicillin (100 µg/ml) and 1% glycerol in a shaker incubator. The cells were grown to an optical density at AU 600 nm of 0.65, transferred to 20°C and expression was induced by addition of 1 mM IPTG overnight. Cells were then harvested and frozen at −20°C. […] After thawing, the cells were re-suspended at 3 ml/g in cold 20 mM Tris-HCl pH 7.4, 200 mM NaCl, 1 mM EDTA, 1 tablet complete protease inhibitor cocktail from Roche/50 ml, and 10 mM β-mercaptoethanol. The cytoplasmic fraction was prepared by sonication of the cells on ice and isolated by centrifugation at 18,000 × g for 30 min. All further purification steps were conducted at 4°C. The clear supernatant was applied to an amylase column (BioLabs, XK26 × 20, 100 ml), equilibrated with 20 mM Tris–HCl pH 7.4, 200 mM NaCl, 1 mM EDTA, and 10 mM β-mercaptoethanol. The column was eluted with 20 mM Tris–HCl pH 7.4, 200 mM NaCl, 1 mM EDTA, 10 mM maltose, and 10 mM β-mercaptoethanol. […] Recombinant purified His-MBP-DEVD-GR-LBD fusion protein was dissolved at a concentration of 1 mg in 1.7 ml PBS buffer.
Each aliquot was incubated 2 h at 37°C. […] 120 µl of each sample was loaded onto a spin column and the flow-through was collected (1,500 × g, 2 min). Trypsin (5 µl of 20 mM stock solution) was added, and the samples were incubated 20 h at 37°C. Then, 0.1% FA (formic acid) (41.5 µl) and 20 mM TCEP in 0.1% FA (18.5 µl, 5.7 mg TCEP/ml) were added [final volume = 185 µl, final concentration TCEP = 2 mM, 1 µg material/2.5 μl], and the samples were subjected to LC–MS/MS analysis.
The obtained peptide mixtures were introduced onto an LC–MS/MS system; the Ultimate 3000 RSLC nano (Dionex, Amsterdam, The Netherlands) in-line connected to an LTQ-Orbitrap Velos (Thermo Fisher Scientific, Bremen, Germany). The sample mixture was loaded on a trapping column [made in-house, 100 µm internal diameter (I.D.) × 20 mm, 5 µm C18 beads (Reprosil-HD, Dr. Maisch)]. After back flushing from the trapping column, the sample was loaded on a reverse-phase column [made in-house, 75 µm I.D. × 150 mm, 5 µm C18 beads (Reprosil-HD, Dr. Maisch)].
The mass spectrometer was operated in data-dependent mode, automatically switching between MS and MS/MS acquisition for the 10 most abundant peaks in a given MS spectrum. […]

SMILES	GR transactivation in GRE-luc reporter [1]	inhibition of TNF-induced NFκB reporter gene activity ([2]; 10 nM compound)	nuclear GR translocation [3]	% inhibition of GR ligand binding [4] [%]	IC50 [4] [nM]	Ki [4] [nM]	GR transactivation in GRE-luc reporter at 10 nM [1]	NFκB transrepression in NFκB-luc reporter [2]	GR Ser211 phosphorylation [5]	displacement of radiolabeled Dex [4]	fold lower GR-LBD affinity versus GSK866 [6]	inhibition at 0.01 µM ([2]; L929sA, 10 nM compound) [%]	Modifications: GR-LBD cysteine-containing peptide covalently bound [7]	Modifications: GR-LBD cysteine-containing peptide covalently bound ([7]; listed as 1218)
C[C@@H]1C[C@H]2[C@@H]3CCC4=CC(=O)C=C[C@]4(C)[C@@]3(F)[C@@H](O)C[C@]2(C)[C@@]1(O)C(=O)COS(C)(=O)=O [Dex-Mes, dexamethasone-21-mesylate, reference compound]	weaker dose-dependent GR-dependent transactivation than Dex	40–45%	induce (partial) translocation of GR from the cytosol to the nucleus	99	7.3	3.7								
CCN(C[C@@](O)(CNC(=O)c1cnn(-c2ccc(F)cc2)c1N)C(F)(F)F)C(=O)c1c(Cl)cccc1Cl [GSK866]	strong GR agonistic activities		induce (partial) translocation of GR from the cytosol to the nucleus	100	4.6	2.3	significant GR transactivation	dose-dependent NFκB-transrepression effects	enhance the Ser211 phosphorylation					
CCN(C[C@@](O)(CNC(=O)c1cnn(-c2ccc(F)cc2)c1N)C(F)(F)F)C(=O)CCN1C(=O)C=CC1=O [UAMC-1158]	completely fail to elicit any GR transactivation at any dose tested		completely ineffective	−2				completely ineffective	failed to show any change in GR phosphorylation status	failed to show displacement of radiolabeled Dex				
CCN(CC(O)(CNC(=O)c1cnn(-c2ccc(F)cc2)c1N)C(F)(F)F)C(=O)C1CCCN1C(=O)CCl (stereo not drawn) [UAMC-1159]	completely fail to elicit any GR transactivation at any dose tested		completely ineffective	−12				completely ineffective		failed to show displacement of radiolabeled Dex				
C=CC(=O)Nc1ccc(Cl)c(C(=O)N(CC)C[C@@](O)(CNC(=O)c2cnn(-c3ccc(F)cc3)c2N)C(F)(F)F)c1Cl [UAMC-1218]			induce (partial) translocation of GR from the cytosol to the nucleus	96	34	17	significantly reduced GR transactivation to levels below transactivation observed with 10 nM of Dex	dose-dependent NFκB-transrepression effects	enhance the Ser211 phosphorylation		approx. 5 fold	~95	Cys-622	Peptide 615–633 → C622
